Patent publication US20070298105A1, “METHODS OF TREATING CONDITIONS BY SUSTAINED RELEASE ADMINISTRATION OF BENZIMIDAZOLE DERIVATIVES” (priority 2006, published 2007)
Where two headings read alike, the source gives them in different places.

Key:
[1] = Colonic intubation study: plasma pharmacokinetics of rabeprazole and esomeprazole; format: in vivo, human; details: male, human, plasma, po, 40 mg; for AUC(0-inf): read-out: AUCinf (mean)
Method: A single-dose, open-label, partially randomized, five-treatment, five-period, crossover pilot study was performed in healthy males to determine relative pharmacokinetics of rabeprazole, and comparators when dosed either orally or colonically. The study was a single dose study with blood sampling up to 24 hours following initiation. […] Colonic dosing occurred using a nasoenteral tube. Treatment C was a single 20 mg dose of rabeprazole sodium oral enteric coated tablets dosed orally. Treatment D was placebo (200 mL of water) dosed orally. […] For subjects whose apparent elimination rate constant [k] could not be properly determined, the AUC to infinity [AUCinf]) was calculated based on the median apparent elimination constant [k] of the subjects with available t1/2 values in the same treatment period. […] The intragastric pH profile were determined.

[2] = test system: intragastric pH; experiment: Colonic intubation study: intragastric pH profile (percent of time with pH >4); format: in vivo, human; details: for Mean percent of time with pH >4: TRT E: esomeprazole 40 mg oral tablet
Method: A single-dose, open-label, partially randomized, five-treatment, five-period, crossover pilot study was performed in healthy males to determine relative pharmacokinetics of rabeprazole, and comparators when dosed either orally or colonically. The study was a single dose study with blood sampling up to 24 hours following initiation.
Treatments A and B were rabeprazole sodium solution dosed to provide 30 and 60 mg, respectively, over 20 hours in the transverse colon of the subjects. Colonic dosing occurred using a nasoenteral tube. Treatment C was a single 20 mg dose of rabeprazole sodium oral enteric coated tablets dosed orally. Treatment D was placebo (200 mL of water) dosed orally.
The intragastric pH profile was analyzed based on the percentage of time that the intragastric pH was above 4, which was calculated for the full 24 hours. In addition, the mean pH value over 5 time intervals of 6 hours each during the 30-hr sampling time was also estimated.

[3] = TRT E: esomeprazole 40 mg oral tablet, N = 19
[4] = TRT E: esomeprazole 40 mg oral tablet, subset N = 14

AUC(0-t) [1, 3]: 1870 ng·h/mL
AUC(0-inf) [1, 3]: 1910 ng·h/mL
half-life ([1]; TRT E: esomeprazole 40 mg oral tablet, N = 19, read-out: t1/2 (median) (converted)): 48 min
Cmax ([1]; TRT E: esomeprazole 40 mg oral tablet, single dose, healthy males, N = 19): 727 ng/mL
AUC(0-t) [1, 4]: 2270 ng·h/mL
Cmax [1, 4]: 800 ng/mL
AUC(0-inf) [1, 4]: 2310 ng·h/mL
half-life ([1]; oral administration of 40 mg esomeprazole, read-out: median half-life (converted)): ~60 min
SMILES: COc1ccc2nc([S@@+]([O-])Cc3ncc(C)c(OC)c3C)[nH]c2c1 [Esomeprazole]
Mean percent of time with pH >4 ([2]; 0-6 hr (10 am-4 pm), N = 19): 57.0%
Mean percent of time with pH >4 ([2]; 0-6 hr (10 am-4 pm), subset N = 14): 64.3%
Mean percent of time with pH >4 ([2]; 6-12 hr (4 pm-10 pm), N = 19): 76.3%
Mean percent of time with pH >4 ([2]; 6-12 hr (4 pm-10 pm), subset N = 14): 87.0%
Mean percent of time with pH >4 ([2]; 12-18 hr (10 pm-4 am), N = 19): 36.6%
Mean percent of time with pH >4 ([2]; 12-18 hr (10 pm-4 am), subset N = 14): 42.8%
Mean percent of time with pH >4 ([2]; 18-24 hr (4 am-10 am), N = 19): 56.0%
Mean percent of time with pH >4 ([2]; 18-24 hr (4 am-10 am), subset N = 14): 60.1%
Mean percent of time with pH >4 ([2]; 24-30 hr (10 am-4 pm), N = 19): 49.5%
Mean percent of time with pH >4 ([2]; 24-30 hr (10 am-4 pm), subset N = 14): 57.1%
Mean percent of time with pH >4 ([2]; 24-hr average, N = 19): 56.5%
Mean percent of time with pH >4 ([2]; 24-hr average, N = 19, listed as esomeprazole): 57%
Mean percent of time with pH >4 ([2]; 24-hr average, subset N = 14): 63.5%
effect on percentage of time with pH >4 compared to placebo ([2]; first 6 hours of treatment, esomeprazole treatment): significant increase
